Reference: ChEMBL document CHEMBL1201862, “PubChem BioAssay data set” (2004)
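Compound exposure: 48 hours, 5 concentrations, 96-well plates. GI50 = concentration required for 50% inhibition of growth.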 Activity calls are given as the source filed them. Rule as the data show it: active = GI50 up to about 1.1 µM and inactive = higher.

Experiments:
Assay in all cases: growth of human tumour cells (NCI), 48 h
SW-620 = system: SW-620
Hs-578T = system: Hs-578T
786-0 = system: 786-0
HOP-62 = system: HOP-62
HT-29 = system: HT-29
SK-MEL-5 = system: SK-MEL-5
MDA-MB-231 = system: MDA-MB-231
COLO 205 = system: COLO 205
PC-3 = system: PC-3
MDA-MB-435 = system: MDA-MB-435
KM12 = system: KM12
MDA-N = system: MDA-N
A549 = system: A549
T47D = system: T47D
ACHN = system: ACHN
SF-268 = system: SF-268
OVCAR-4 = system: OVCAR-4
TK-10 = system: TK-10
HOP-92 = system: HOP-92

Measured: GI50

N#CCCN(C(=O)Nc1ccc(NC(=O)N(CCC#N)c2ccccc2)cc1)c1ccccc1
inactive: SW-620 > 100 µM | Hs-578T > 100 µM | 786-0 > 100 µM | HOP-62 > 100 µM | HT-29 > 100 µM | SK-MEL-5 > 100 µM | MDA-MB-231 > 100 µM | COLO 205 > 100 µM | PC-3 > 100 µM | MDA-MB-435 > 100 µM | KM12 > 100 µM | MDA-N > 100 µM | A549 > 100 µM | T47D > 100 µM | ACHN > 100 µM | SF-268 > 100 µM | OVCAR-4 > 100 µM

Cc1nn2c(N)cc(=O)nc2nc1/C=C/c1ccc(N(C)C)cc1
inactive: SW-620 > 100 µM | Hs-578T 6.84 µM | 786-0 > 28.8 µM | HOP-62 9.55 µM | HT-29 4.76 µM | SK-MEL-5 20.6 µM | COLO 205 7.74 µM | PC-3 > 100 µM | MDA-MB-435 7.93 µM | KM12 > 28.8 µM | MDA-N 5.82 µM | A549 16.9 µM | T47D > 100 µM | ACHN 18 µM | SF-268 > 100 µM | OVCAR-4 > 26.5 µM | TK-10 > 100 µM

CSc1ccc(/C=C2\CNC/C(=C\c3ccc(SC)cc3)C2=O)cc1
inactive: SW-620 > 371 µM | Hs-578T 64.1 µM | 786-0 29.3 µM | HOP-62 84.5 µM | SK-MEL-5 > 371 µM | MDA-MB-231 86.9 µM | COLO 205 > 371 µM | PC-3 > 100 µM | MDA-MB-435 > 371 µM | MDA-N > 100 µM | A549 > 237 µM | HOP-92 65.5 µM | T47D > 371 µM | ACHN 120 µM | SF-268 13.4 µM | TK-10 41.9 µM

COC(=O)CCC1(C)C2CCC1(C)/C(=N/O)C2 (stereo unspecified)
inactive: SW-620 > 100 µM | Hs-578T > 100 µM | 786-0 > 100 µM | HOP-62 > 100 µM | HT-29 > 100 µM | SK-MEL-5 > 100 µM | MDA-MB-231 > 100 µM | COLO 205 > 100 µM | PC-3 > 100 µM | MDA-MB-435 > 100 µM | KM12 > 100 µM | MDA-N > 100 µM | A549 > 100 µM | T47D > 100 µM | ACHN > 100 µM | SF-268 > 100 µM | OVCAR-4 > 100 µM | TK-10 > 100 µM

COC(=O)CSSCc1ccc([N+](=O)[O-])cc1
inactive: SW-620 12.2 µM | Hs-578T 21.2 µM | 786-0 19 µM | HOP-62 20.1 µM | HT-29 19.5 µM | SK-MEL-5 17.7 µM | MDA-MB-231 19.1 µM | COLO 205 18.7 µM | PC-3 28.1 µM | MDA-MB-435 13.9 µM | KM12 15.1 µM | MDA-N 14.7 µM | A549 25.5 µM | HOP-92 27.1 µM | T47D 24.1 µM | ACHN 16.3 µM | SF-268 21.8 µM | TK-10 16.2 µM

COc1c(-c2ccc(F)cc2)oc2c(CC(=O)O)cccc2c1=O
inactive: Hs-578T > 100 µM | 786-0 > 100 µM | HOP-62 > 100 µM | HT-29 > 100 µM | SK-MEL-5 > 100 µM | MDA-MB-231 > 100 µM | COLO 205 > 100 µM | PC-3 > 100 µM | MDA-MB-435 > 100 µM | MDA-N > 100 µM | A549 > 100 µM | T47D > 100 µM | ACHN > 100 µM | SF-268 > 100 µM | TK-10 > 100 µM

N#C/C(N)=C(C#N)/N=C/Nc1ccccc1N
inactive: SW-620 > 100 µM | Hs-578T > 100 µM | 786-0 > 100 µM | HOP-62 > 100 µM | HT-29 > 100 µM | SK-MEL-5 > 100 µM | MDA-MB-231 > 100 µM | COLO 205 > 100 µM | PC-3 > 100 µM | MDA-MB-435 > 100 µM | KM12 > 100 µM | MDA-N > 100 µM | A549 > 100 µM | T47D > 100 µM | ACHN > 100 µM | SF-268 > 100 µM | OVCAR-4 > 100 µM | TK-10 > 100 µM

O=S1(=O)OCCOS(=O)(=O)C1F
inactive: SW-620 > 100 µM | Hs-578T > 100 µM | 786-0 > 100 µM | HOP-62 > 100 µM | HT-29 > 100 µM | SK-MEL-5 > 100 µM | COLO 205 > 100 µM | PC-3 > 100 µM | MDA-MB-435 > 100 µM | KM12 > 100 µM | MDA-N > 100 µM | A549 > 100 µM | T47D > 100 µM | ACHN > 100 µM | SF-268 > 100 µM | OVCAR-4 > 100 µM | TK-10 > 100 µM
